The nature of the data set: Chemical stability on storage: amount of benzoic acid remaining as compound (IA). It counts as physicochemical. How it is done: Compound (IA) (50 mg) of Comparative Example 1, the mixture (99.59 mg) of Comparative Example 2, and tablets of Example 1 and Example 2 were preserved in glass bottles at 40° C., 75% RH with opened cap or at 60° C. with closed cap and the amount of benzoic acid remaining as compound (IA) was measured to evaluate the chemical stability.

Consider `Cn1c(=O)cc(N2CCC[C@@H](N)C2)n(Cc2ccccc2C#N)c1=O` [Comparative Example 1, 2-[[6-[(3R)-3-amino-1-piperidinyl]-3,4-dihydro-3-methyl-2,4-dioxo-1(2H)-pyrimidinyl]methyl]-benzonitrile], for which the residual benzoic acid reads like this: (40° C., 75% RH, opened bottle, 2 week storage product) 99.2%; (60° C., closed bottle, 2 week storage product) 99.0%; (Initial) 99.8%.

For the origin of these results see US8637079B2, “Solid preparation comprising alogliptin and pioglitazone” (Takeda Pharmaceutical Company Limited, priority 2007, dated 2014).
